Data on two molecules can be found in paper PMC12715805, “Screening apelin analogues and a small molecule agonist as effective cardiovascular therapeutics against reperfusion injury” (RSC Medicinal Chemistry, 2025).

Assay [1] deals with wild-type male mice (C57BL/6). The experiment in a line: Blood pressure lowering assay in anesthetized mice. The format is in vivo, mouse. The note with it: 0.5 μmol kg^−1 infusion during 5 min via jugular vein; anesthetized wild-type male C57BL/6 mice; compared to vehicle control. How it is done:
The metabolically stable apelin analogues from each isoform, CbzPEG6–NMeLeu17A2 and NMeLeu13A2 along with the small molecule agonist, BMS-986224 (0.5 μmol kg^−1 infusion during 5 min for each compound), were tested for their BP lowering activity in anesthetized wild-type male mice (C57BL/6, 24–30 g). […] In contrast, the hypotensive effect of CbzPEG6–NMeLeu17A2 was observed immediately after infusion. This analogue reduced mean arterial pressure (MAP) by approximately 50% during the experiment, with the effect sustained for more than 30 minutes post-administration. Apelin can act on the endothelial layer of vasculature, leading to systemic changes in blood pressure by increasing the synthesis of nitric oxide (NO).[5] The effect of CbzPEG6–NMeLeu17A2 on […], which decreases the […] resistance by increasing eNOS activation and NO production through the activation of the PI3K/Akt signalling pathway on endothelial cells like other apelin analogues we tested in the previous studies.[5,11]
The blood pressure measurement and apelin injection method has been described in our previous research.[43] During the blood pressure testing, mice aged 12–14 weeks were anesthetized with 1.5% isoflurane in oxygen and monitored throughout the experiment. The blood pressure was measured using a PV loop catheter (model 1.2F, Transonic) […] into the left carotid artery. The monitor system (LabScribe 2.0. Scisense) recorded aortic blood pressure and heart rate. After a 20-minute baseline measurement, CbzPEG6–NMeLeu17A2, NMeLeu13A2, RI13, RI13A2, RI17, RI17A2, and BMS-986224 (0.5 μmol […] body weight) were diluted in saline and consistently infused for 5 min via the right jugular vein. For BMS-986224, 0.1% DMSO was added to saline to help with dilution. Blood pressure was continuously recorded for 60 minutes post-infusion.
3. Effects of APJ agonists on blood pressure
Figure S3. Different effects of apelin analog and receptor agonist on blood pressure and ischemia-reperfusion injury. A) the effect of CbzPEG6–NMeLeu17A2 (n=3) on mean arterial blood pressure (MAP), B) the effect of apelin 13 analog, NMeLeu13A2, on MAP (n=4). The effect of apelin 13 analog reverse enantiomers, C) RI13 (n=4) and D) RI13A2 (n=4), on MAP. The effect of apelin 17 reverse enantiomers, E) RI17 (n=4) and F) RI17A2 (n=4) on MAP. G) The effect of small molecule apelin receptor agonist BMS-986224 on blood pressure (n=4). The MAP recording between 50 and 60 minutes has been averaged and compared with their controls (placebo (n=4)). The vehicle for BMS-986224 is 0.1% DMSO (n=3). The arrow indicates the time when analogs were introduced. Values mean ±SEM and ****P<0.0001, compared to the control group.
(1 picture or pasted object on this page, not shown here)

The target of another assay is T1, apelinR / β-arrestin2 (Homo sapiens, UniProt P35414).
T1 sequence (P35414 1-380): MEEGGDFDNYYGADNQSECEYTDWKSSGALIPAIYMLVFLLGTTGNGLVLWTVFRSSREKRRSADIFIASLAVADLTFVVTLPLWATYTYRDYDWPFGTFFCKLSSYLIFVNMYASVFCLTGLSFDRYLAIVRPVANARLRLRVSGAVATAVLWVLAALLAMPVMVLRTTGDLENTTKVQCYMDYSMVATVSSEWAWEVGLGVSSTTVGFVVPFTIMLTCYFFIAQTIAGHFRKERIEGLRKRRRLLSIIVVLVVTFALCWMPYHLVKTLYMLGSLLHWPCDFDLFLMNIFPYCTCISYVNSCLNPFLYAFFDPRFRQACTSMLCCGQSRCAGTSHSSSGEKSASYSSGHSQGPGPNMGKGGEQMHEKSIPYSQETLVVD
Kind of assay: ebBRET β-arrestin2 recruitment. The format is cell-based. The following applies: HEK293 cells transfected with apelinR, β-arrestin2-RlucII, rGFP-CAAX; 10 min at 37 °C; mean ± SEM of 5 to 6 independent experiments; read-out: β-arr2 recruitment log EC50 (converted).

Another assay deals with T2, human apelinR (Homo sapiens, UniProt P35414).
T2 construct: expressed in transfected cells; crude membrane preparations
T2 sequence (P35414 1-380): T1 sequence (P35414 1-380)
Kind of assay: ApelinR radioligand binding experiment (competition with [125I]-(Nle11,Tyr13) apelin-13). The following applies: Fig. 1; membranes of CHO cells stably expressing hApelinR; 0.2 nM [125I]-(Nle11,Tyr13) apelin-13; 3 h at 20 °C; n = 4 to 6 independent experiments in duplicate; read-out: Binding affinity IC50 ± SEM.

A further assay concerns the target T3, apelinR / human Gαi2 (Homo sapiens, UniProt P35414).
T3 sequence (P35414 1-380): T1 sequence (P35414 1-380)
The experiment in a line: ebBRET Gαi2 activation. The format is cell-based. The following applies: HEK293 cells transfected with apelinR, human Gαi2, Rap1GAP-RlucII, rGFP-CAAX; 10 min at 37 °C; mean ± SEM of 5 to 6 independent experiments; read-out: Gαi2 activation log EC50 (converted).

The target in another assay is apelinR. Also on record: method as in PMID 33663236. The following applies: cited from earlier work.
A further assay relates to rats. The note with it: cited from earlier work. The source says:
Another avenue being investigated is the use of small molecule as agonists for the apelinR, such as, Bristol Myers Squibb's BMS-986224,[26,27] Amgen's AMG986,[28] and Davenport's CMF-019.[29] […] In contrast, the two non peptidic apelinR agonists, BMS-98622 ...

The target in a further assay is T4, apelinR / human Gαi1 (Homo sapiens, UniProt P35414).
T4 sequence (P35414 1-380): T1 sequence (P35414 1-380)
Kind of assay: ebBRET Gαi1 activation. The note with it: HEK293 cells transfected with apelinR, human Gαi1, Rap1GAP-RlucII, rGFP-CAAX; 10 min at 37 °C; mean ± SEM of 5 to 6 independent experiments; read-out: Gαi1 activation log EC50 (converted). In kind it is cell-based.

The next assay deals with T5, apelinR / β-arrestin1 (Homo sapiens, UniProt P35414).
T5 sequence (P35414 1-380): T1 sequence (P35414 1-380)
The experiment in a line: ebBRET β-arrestin1 recruitment. The following applies: HEK293 cells transfected with apelinR, β-arrestin1-RlucII, rGFP-CAAX; 10 min at 37 °C; mean ± SEM of 5 to 6 independent experiments; read-out: β-arr1 recruitment log EC50 (converted). In kind it is cell-based. On the technique in general: Activated receptors often draw arrestin, which recruitment assays turn into a signal.

Assay [2] deals with isolated mouse heart (ischemia–reperfusion injury). Kind of assay: Ex vivo Langendorff heart perfusion with ischemia–reperfusion. The note with it: 1 μM in perfusion buffer for first 10 min of reperfusion after 30 min ischemia; compared to placebo; one-way ANOVA, Dunnett.
For assay [3] the following is noted: G-protein-biased agonists; cited from earlier work. From the text:
The therapeutic potential of biased and unbiased agonists for the apelinR remains an area of active investigation, particularly regarding their effects on BP regulation. […] In contrast, the two non peptidic apelinR agonists, BMS-98622 ...

By EC50 is commonly meant the concentration that produces a half-maximal response. Usually IC50 stands for the concentration at which inhibition is half-maximal. By Kd is commonly meant the constant that tells how readily two partners part at equilibrium.

Description for human apelinR: Graphic is the compilation of n independent experiments performed in duplicate (n from 4 to 6). Error bars represent the SD of 4 to 6 independent experiments.
The reaction was stopped with cold 10 mM Hepes pH 7.5, 1 mM MgCl2 buffer and filtered on Whatman GF/C filters. After washing the filters, radioactivity was measured using a Wallac gamma counter.
APJ receptor agonist IC50 (nM)
Competition binding curves of different apelin receptor ligands. Membranes of CHO cells stably expressing the
concentrations of each ligand (from 1 pM to 10 µM).
in the absence of any unlabeled ligand. Graphic is a compilation of 4 independent experiments performed in duplicate.

Consider `CCOCc1nc(O)c(-c2nnc(Cc3ccc(Cl)cn3)o2)c(O)c1-c1c(OC)cccc1OC` [BMS-986224, reference compound], for which the “hypotensive effect (BP lowering activity, in words)” value in assay [1] is “no hypotensive effect”. The EC50 was 8.91 nM at apelinR / β-arrestin2, 0.11 nM at apelinR / human Gαi2, 0.102 nM at apelinR / human Gαi1 and 10.7 nM at apelinR / β-arrestin1. Besides, at human apelinR, the IC50 was found to be 16.4 ± 5.42 nM. In addition, on apelinR, the Kd was 0.3 nM. Moreover, the “change in BP in a myocardial infarction (MI) rat model and a hypertension-induced cardiac dysfunction rat model (in words)” value in the assay with rats (MI rat model, hypertension-induced cardiac dysfunction rat model) was “do not induce any change in BP”. Further, in the assay with rats (anesthetized normotensive rats, at the beginning of the infusion), the “BP in anesthetized normotensive rats (in words)” value was “slight but significant decrease in BP”. Besides, the “cardiac effects and blood pressure in a rat pressure–volume loop model (in words)” value with rats (rat pressure–volume loop model) was “positive cardiac effects without significantly lowering blood pressure”. Besides, the “cardioprotective effect / cardiac function recovery after ischemia–reperfusion (LVDP, RPP, max dP/dt, min dP/dt; in words)” value in assay [2] is given as “failed to show significance in cardiac function recovery”.
As for `CCC(CC)n1c(Cc2cccs2)nc2cc(C(=O)N[C@H](CC(=O)O)CC(C)C)ccc21` [CMF-019], in [3], the “vasodilation (in words)” value is recorded as “demonstrated vasodilation”.
